According to US20120238553A1 (priority 2009, published 2012):
Where a name gives a salt, the structure may show the parent alone.

Target: α7-subtype of nicotinic receptors (Rattus norvegicus, UniProt Q05941)
Assay: biochemical
Format: binding

Chain of α7-subtype of nicotinic receptors (Q05941 23-502): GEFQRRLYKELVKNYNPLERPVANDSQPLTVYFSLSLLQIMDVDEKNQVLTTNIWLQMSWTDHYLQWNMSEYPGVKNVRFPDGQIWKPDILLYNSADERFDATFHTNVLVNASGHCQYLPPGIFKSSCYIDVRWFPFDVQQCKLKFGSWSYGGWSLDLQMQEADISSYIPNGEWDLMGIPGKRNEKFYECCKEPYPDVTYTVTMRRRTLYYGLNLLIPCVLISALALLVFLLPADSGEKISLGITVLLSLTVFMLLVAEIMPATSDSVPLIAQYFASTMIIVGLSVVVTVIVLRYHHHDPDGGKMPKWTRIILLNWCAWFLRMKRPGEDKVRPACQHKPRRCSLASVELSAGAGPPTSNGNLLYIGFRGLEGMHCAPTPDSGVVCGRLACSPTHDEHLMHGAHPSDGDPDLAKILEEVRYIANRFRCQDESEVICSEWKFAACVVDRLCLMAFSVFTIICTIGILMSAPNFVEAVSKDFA

With `c1cc2c(c(-c3nnc(N4CCN5CCC4CC5)o3)c1)OCO2` [Compound 1, 4-(5-Benzo[1,3]dioxol-4-yl-[1,3,4]oxadiazol-2-yl)-1,4-diaza-bicyclo[3.2.2]nonane fumaric acid salt] the IC50 was 22 nM.
